The source of these data is ChEMBL document CHEMBL1147278, “Pharmacologically Active Metabolites from Symbiotic Microalgae in Okinawan Marine Invertebrates” (J Nat Prod, 1989).

SMILES strings stand for the structures. Converted amounts (≈) assume the structure as drawn.

Target in one test: not listed separately
The experiment in a line: Inhibition of sodium potassium ATPase activity.
`CC/C=C\C/C=C\C/C=C\C/C=C\CCCCC(=O)OCC(CO[C@@H]1O[C@H](CO[C@H]2O[C@H](CO)[C@H](O)[C@H](O)[C@H]2O)[C@H](O)[C@H](O)[C@H]1O)OC(=O)CCCC/C=C\C/C=C\C/C=C\C/C=C\CC` (some centres undefined): half-maximal inhibition (IC50) was put at 20 µM. On the same count and under the same terms, under `CC/C=C\C/C=C\C/C=C\C/C=C\CCCCC(=O)OCC(CO[C@@H]1O[C@H](CO)[C@H](O)[C@H](O)[C@H]1O)OC(=O)CCCC/C=C\C/C=C\C/C=C\C/C=C\CC` (some centres undefined) stands 20 µM; under `CC/C=C\C/C=C\C/C=C\C/C=C\CCCCC(=O)OCC(O)CO[C@@H]1O[C@H](CO)[C@H](O)[C@H](O)[C@H]1O` (some centres undefined), 20 µM.

System in the next test: not listed separately
Briefly: Activation of calcium ATPase in sarcoplasmic reticulum at 100 uM.
On to `CCCCCCCCCCCCCC/C=C/C(O)C(=O)N[C@@H](CO)[C@H](O)CCCCCCCCCCCCCCC` (some centres undefined) [SYMBIORAMIDE], for which the Activity worked out at 30%.

For another test, the system named is L1210. Briefly: Antitumor activity against mouse L1210 cells. The test is classed as functional, cell-based.
In turn, `C=C1C/C=C/[C@H](O)[C@@H](O)C(=C)[C@@H](O)[C@H](O)C(=C)C/C=C/C(C)=C/C(=O)O[C@H]([C@@H]2O[C@H]2[C@@H](C)CCC)[C@@H](C)C1` [AMPHIDINOLIDE A] yielded a 50% inhibitory concentration (IC50) of 2.4 µg/mL (≈ 4.52 µM).

On to `C=C1/C=C(\C)[C@](C)(O)C[C@H](O)CC(=O)[C@H](O)[C@@H](O)[C@H](C)C[C@H](C)OC(=O)/C(C)=C/CC/C=C/[C@@H]2O[C@H]2C[C@H](C)C1` [AMPHIDINOLIDE B], for which inhibition was half-maximal at 0.00014 µg/mL (≈ 0.000249 µM) (IC50). On the same count and under the same terms, under `C=C1/C=C(\C)[C@@H](C)[C@@H](O)CC(=O)[C@@H](C)CC(=O)C[C@H]2CC[C@@H](O2)[C@H](/C=C/C=C(\C)[C@@H](O)C(=C)CCCC)OC(=O)C[C@@H]2O[C@H](C[C@H]2C)[C@H](O)[C@@H]1O` [AMPHIDINOLIDE C] stands 0.0058 µg/mL (≈ 0.00811 µM). For `C=C1/C=C(\C)[C@](C)(O)C[C@H](O)CC(=O)[C@@H](O)[C@@H](O)[C@H](C)C[C@H](C)OC(=O)/C(C)=C/CC/C=C/[C@@H]2O[C@H]2C[C@H](C)C1` [AMPHIDINOLIDE D], it took 0.019 µg/mL (≈ 0.0338 µM) to reach half-maximal inhibition (IC50). Turning to `CCCCCCCCCCCCCC/C=C/C(O)C(=O)N[C@@H](CO)[C@H](O)CCCCCCCCCCCCCCC` (some centres undefined) [SYMBIORAMIDE], the half-maximal inhibitory concentration (IC50) came to 9.5 µg/mL (≈ 16.3 µM).
